Each block holds one compound with its values, some of them ahead of it. Calls of active or inactive are those of the source. The calls are words filed in the database; no cut-off is given here.
How the values were obtained:
[1] = target: T1, N-acylethanolamine-hydrolyzing acid amidase (Homo sapiens, UniProt Q02083); assay: Inhibition of human NAAA using N-(4-methyl coumarin)-palmitamide as fluorogenic substrate preincubated for 90 mins followed by substrate addition by fluorescence assay
T1 sequence (Q02083 whole entry): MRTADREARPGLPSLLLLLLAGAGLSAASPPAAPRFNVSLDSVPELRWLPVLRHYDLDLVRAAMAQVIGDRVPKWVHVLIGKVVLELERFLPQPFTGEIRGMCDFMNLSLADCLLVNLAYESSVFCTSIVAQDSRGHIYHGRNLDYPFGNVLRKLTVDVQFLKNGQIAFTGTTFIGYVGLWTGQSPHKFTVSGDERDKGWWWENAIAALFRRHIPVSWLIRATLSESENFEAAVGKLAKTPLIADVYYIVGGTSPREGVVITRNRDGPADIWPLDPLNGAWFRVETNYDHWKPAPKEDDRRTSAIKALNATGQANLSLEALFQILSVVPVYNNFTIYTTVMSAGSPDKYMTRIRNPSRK

[2] = target: T2, Cathepsin K (Homo sapiens) (UniProt P43235); assay: Inhibition of recombinant human Cathepsin K at 100 nM using Z-Phe-Arg-AMC as fluorogenic substrate preincubated for 120 mins followed by substrate addition by fluorescence assay relative to control
T2 sequence (whole entry): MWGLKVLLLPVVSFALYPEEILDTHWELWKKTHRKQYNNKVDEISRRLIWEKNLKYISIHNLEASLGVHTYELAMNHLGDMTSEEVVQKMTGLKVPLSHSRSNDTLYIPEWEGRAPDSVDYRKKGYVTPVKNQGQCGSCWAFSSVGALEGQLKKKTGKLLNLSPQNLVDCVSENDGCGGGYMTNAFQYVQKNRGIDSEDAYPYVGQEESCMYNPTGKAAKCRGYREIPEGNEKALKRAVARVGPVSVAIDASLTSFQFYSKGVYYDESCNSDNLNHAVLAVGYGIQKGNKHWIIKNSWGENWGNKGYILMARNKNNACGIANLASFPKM

[3] = Drug concentration in brain of CD-1 mouse at 2 mg/kg, iv administered as single cassette dose measured after 15 mins; type: ADME, organism-based; details: read-out: Ct
[4] = target: T3, N-acylethanolamine-hydrolyzing acid amidase (Homo sapiens) (UniProt Q02083); assay: Covalent inhibition of human NAAA assessed as ratio of Kinact/Ki
T3 sequence (whole entry): T1 sequence (Q02083 whole entry)

[5] = Half life in human liver microsomes at 1 uM in presence of NADPH by LC-MS/MS analysis; type: ADME, Microsome
[6] = Half life in rat liver microsomes at 1 uM in presence of NADPH by LC-MS/MS analysis; type: ADME, Microsome
[7] = Half life in mouse liver microsomes at 1 uM in presence of NADPH by LC-MS/MS analysis; type: ADME, Microsome
[8] = Drug concentration in plasma of CD-1 mouse at 2 mg/kg, iv administered as single cassette dose measured after 15 mins; type: ADME, organism-based
[9] = Drug concentration in plasma of CD-1 mouse at 8 mg/kg, po administered as single cassette dose measured after 30 mins; type: ADME, organism-based
[10] = Drug concentration in plasma of CD-1 mouse at 8 mg/kg, po administered as single cassette dose measured after 60 mins; type: ADME, organism-based
Cathepsin K = target: T4, Cathepsin K (Homo sapiens, UniProt P43235); assay: Inhibition of recombinant human Cathepsin K using Z-Phe-Arg-AMC as fluorogenic substrate preincubated for 120 mins followed by substrate addition by fluorescence assay
T4 sequence (P43235 whole entry): T2 sequence (whole entry)

[11] = target: T2, Cathepsin K (Homo sapiens); assay: Inhibition of recombinant human Cathepsin K at 1 uM using Z-Phe-Arg-AMC as fluorogenic substrate preincubated for 120 mins followed by substrate addition by fluorescence assay
[12] = target: T3, N-acylethanolamine-hydrolyzing acid amidase (Homo sapiens); assay: Inhibition of human NAAA at 1 uM using N-(4-methyl coumarin)-palmitamide as fluorogenic substrate preincubated for 90 mins followed by substrate addition by fluorescence assay relative to control

SMILES: COc1ccc(-c2ccc3c(c2)CCN([C@H]2C[C@@H](N=C=S)C2)C3)cc1F
- IC50 [1]: 89 nM

SMILES: COc1ccc(C2CC(C(=O)N[C@H]3C[C@@H](N=C=S)C3)C2)cc1 (some centres undefined)
- IC50 [1]: 55.9 nM

SMILES: S=C=N[C@H]1C[C@@H](OCc2ccc(-c3ccc4occc4c3)cn2)C1
- IC50 [1]: 8.3 nM
- inhibition [2]: 55.8%

SMILES: COc1ccc(-c2ccc3c(c2)CN([C@H]2C[C@@H](N=C=S)C2)CC3)cc1F
- IC50 [1]: 356 nM

SMILES: COc1ccc(N2CCC(C(=O)N[C@H]3C[C@@H](N=C=S)C3)CC2)cc1
- IC50 [1]: 137 nM

SMILES: Fc1cc(-c2ccc3c(c2)OCO3)ccc1CO[C@H]1C[C@@H](N=C=S)C1
- concentration at 0.25 h [3]: 14 ng/g
- IC50 [1]: 8.8 nM
- Ratio [4]: 3.44 10^5/M/s
- half-life at 1 µM [5]: 3.3 min
- half-life at 1 µM [6]: 6.5 min
- half-life at 1 µM [7]: 2.4 min
- concentration at 0.25 h [8]: 244 ng/mL
- concentration at 0.5 h [9]: 31 ng/mL
- concentration at 1 h [10]: 13 ng/mL

SMILES: Fc1cc(-c2ccc3c(c2)CCO3)ccc1CO[C@H]1C[C@@H](N=C=S)C1
- IC50 [1]: 4.5 nM
- IC50 (Cathepsin K): 83.5 nM

SMILES: COc1ccc(CCCCCC(=O)N[C@H]2C[C@@H](N=C=S)C2)cc1
- IC50 [1]: 22.5 nM

SMILES: COc1ccc(-c2ccc(S(=O)(=O)N[C@H]3C[C@@H](N=C=S)C3)nc2)cc1
- concentration at 0.25 h [3]: 1150 ng/g
- IC50 [1]: 6.3 nM
- inhibition [11]: inactive
- concentration at 0.25 h [8]: 126 ng/mL
- concentration at 0.5 h [9]: 3 ng/mL
- concentration at 1 h [10]: 2 ng/mL

SMILES: COc1cccc(-c2ccc(CO[C@H]3C[C@@H](N=C=S)C3)cc2)c1
- IC50 [1]: 22 nM
- Ratio [4]: 2.24 10^6/M/s

SMILES: COc1ccc(-c2ccc(C(=O)N[C@H]3C[C@@H](N=C=S)C3)nc2)cc1
- concentration at 0.25 h [3]: 809 ng/g
- IC50 [1]: 7.6 nM
- inhibition [11]: inactive
- concentration at 0.25 h [8]: 264 ng/mL
- concentration at 0.5 h [9]: 12 ng/mL
- concentration at 1 h [10]: 8 ng/mL

SMILES: COc1ccc(-c2ccc(CO[C@H]3CC[C@@H](N=C=S)CC3)cc2)cc1F
- IC50 [1]: 386 nM

SMILES: COc1ccc(-c2cnc(C(=O)N[C@H]3C[C@@H](N=C=S)C3)cn2)cc1
- IC50 [1]: 853 nM

SMILES: Cn1cc(-c2ccc(CO[C@H]3C[C@@H](N=C=S)C3)c(F)c2)cn1
- IC50 [1]: 517 nM

SMILES: COc1cnc(-c2ccc(CO[C@H]3C[C@@H](N=C=S)C3)[n+]([O-])c2)cc1F
- IC50 [1]: 23.5 nM

SMILES: S=C=N[C@H]1C[C@@H](OCc2ccc(-c3ccccc3)cc2)C1
- IC50 [1]: 93 nM
- Ratio [4]: 7.23 10^6/M/s
- half-life at 1 µM [5]: 16.1 min
- half-life at 1 µM [6]: 19.6 min
- half-life at 1 µM [7]: 14.4 min

SMILES: COc1ccc(-c2ccc(COC3C[C@@H](N=C=S)C3(C)C)nc2)cc1F (single isomer, unassigned)
- IC50 [1]: 246 nM

SMILES: Fc1cc(-c2cccc(C(F)(F)F)c2)ccc1CO[C@H]1C[C@@H](N=C=S)C1
- concentration at 0.25 h [3]: 810 ng/g
- IC50 [1]: 67.2 nM
- half-life at 1 µM [5]: 16 min
- half-life at 1 µM [6]: 17.9 min
- half-life at 1 µM [7]: 13.2 min
- concentration at 0.25 h [8]: 1010 ng/mL
- concentration at 0.5 h [9]: 19 ng/mL
- concentration at 1 h [10]: 331 ng/mL

SMILES: COc1ccc(-c2ccc(CO[C@H]3C[C@@H](N=C=S)C3)c(F)c2)cc1F
- IC50 [1]: 20.6 nM
- Ratio [4]: 2.85 10^6/M/s
- inhibition [2]: 56.5%

SMILES: COc1cnc(-c2ccc(CO[C@H]3C[C@@H](N=C=S)C3)cn2)cc1F
- IC50 [1]: 15 nM
- inhibition [2]: 56.8%
- half-life at 1 µM [5]: 11.8 min
- half-life at 1 µM [6]: 10.2 min
- half-life at 1 µM [7]: 5.1 min

SMILES: COc1ccc(-c2ccc(CO[C@]3(C)C[C@H](N=C=S)C3)c(F)c2)cc1F
- IC50 [1]: 480 nM

- IC50 [1]: 14.6 nM
SMILES: COc1ccc(-c2ccc(C(C)O[C@H]3C[C@@H](N=C=S)C3)c(F)c2)cc1F (some centres undefined)

SMILES: COc1ccc(-c2ccc(S(=O)(=O)N[C@H]3C[C@@H](N=C=S)C3)cc2)cc1
- concentration at 0.25 h [3]: 1090 ng/g
- IC50 [1]: 2.3 nM
- inhibition [11]: inactive
- concentration at 0.25 h [8]: 164 ng/mL
- concentration at 0.5 h [9]: 20 ng/mL
- concentration at 1 h [10]: 20 ng/mL

SMILES: COc1ccc(-c2ccc(O[C@H]3C[C@@H](N=C=S)C3)cc2)cc1F
- IC50 [1]: 35.9 nM

SMILES: COc1ccc(-c2ccc(CN3CC(N=C=S)C3)c(F)c2)cc1F
- IC50 [1]: 176 nM

SMILES: COc1ccc(-c2ccc(OC(=O)N[C@H]3C[C@@H](N=C=S)C3)cc2)cc1
- IC50 [1]: 7 nM
- half-life at 1 µM [5]: 6.4 min
- half-life at 1 µM [6]: 5 min
- half-life at 1 µM [7]: 6.2 min

SMILES: COc1ccc(-c2ccc(CO[C@H]3C[C@@H](N=C=S)C3)nc2)nc1
- IC50 [1]: 30.4 nM

- inhibition [12]: 41%
SMILES: CS(=O)(=O)c1ccc(-c2ccc(C(=O)N[C@H]3C[C@@H](N=C=S)C3)nc2)cc1

Reference: ChEMBL document CHEMBL4834430, “Design and Structure-Activity Relationships of Isothiocyanates as Potent and Selective N-Acylethanolamine-Hydrolyzing Acid Amidase Inhibitors” (J Med Chem, 2021)
